Assay results taken from patent US8158606B2, “β-L-2′-deoxynucleosides for the treatment of resistant HBV strains and combination therapies” (priority 2002, dated 2012).
Several values for one entry are separate records, joined by “and”; a condition that tells them apart may be missing. Equal entries are not always repeated. Structures can show the parent of a compound that is named as a salt. Where two headings read alike, the source gives them in different places.

How the values were obtained:
[1] = Stability study in buffer at pH 7.4, 7.20, 4.5 and 1.2; assay type: physicochemical; settings: no other compounds detected up to 48 hours
[2] = dival-L-dC 10 mg/kg oral
Excerpt: The drug was quantitated in plasma and in urine using HPLC analysis.

[3] = assay type: physicochemical; settings: octanol-1 (B) / MilliQ water pH 6.5 (A′), Study 1 and Study 2, listed as L-dC-3′,5′-divalinyl ester hydrochloride
Protocol: (§1) To 1 mL of this solution, 1 mL of octanol-1 (B) saturated with MilliQ water (A′) was added.
as §1

[4] = Log P study, octanol-1 / phosphate buffer
Protocol: To 1 mL of this solution, 1 mL of octanol-1 (B) saturated with 0.02 M phosphate buffer solution (A) was added. The resultant mixture was shaken and centrifuged; three samples from each phase was collected and analyzed by HPLC, as shown in Table 10.
The solution was then saturated with octanol-1 (B). To 1 mL of this solution, 1 mL of octanol-1 (B) saturated with 0.02 M phosphate buffer solution (A) was added. The resultant mixture was shaken and centrifuged; three samples from each phase was collected and analyzed by HPLC, as shown in Table 11.

[5] = In vitro stability of dival-L-dC in human plasma; assay type: in vitro ADME; settings: 37° C.
Excerpt: Two additional metabolites (β-L-2′-deoxycytidine-5′-valine ester and β-L-2′-deoxycytidine-valine ester) were also noted.

[6] = assay type: in vivo, cynomolgus monkey (Macaca fascicularis)
Excerpt: The drug was quantitated in plasma and urine with a liquid chromatography-mass spectrometry (LC-MS) technique.

human plasma proteins = assay type: in vitro ADME; settings: ex vivo, ultrafiltration
[7] = Bioavailability of the prodrugs of L-dC; settings: oral administration to monkeys
[8] = Solubility study in water (HPLC calibration); settings: listed as 3′,5′-divalinyl ester hydrochloride of β-L-dC, hydrochloride
[9] = during the log P experiment in phosphate buffer

SMILES: CC(C)[C@H](N)C(=O)OC[C@@H]1O[C@H](n2ccc(N)nc2=O)C[C@H]1OC(=O)[C@@H](N)C(C)C [3′5′-dival-L-dC, 3,5′-L-Valine ester of 2′-deoxy-β-L-cytidine hydrochloride]
- stability in words [1]: fully stable
- L-dC as share of drug excreted in the urine [2]: ~89%
- administered oral dose recovered in urine after 72 hours [2]: 31%
- administered oral dose recovered in urine within 8 hours [2]: Approximately 26%
- renal excretion of L-dU, share of the recovered dose [2]: approximately 10%
- dival-L-dC in plasma at 15 minutes post-dose ([2]; detected in only one animal): 0.35 µM
- P′ (B/A′) [3]: 1.80 × 10^−3 and 1.77 × 10^−3
- conversion of the divaline ester detected in the aqueous phase [4, 9]: 50%
- conversion of the divaline ester detected in the organic phase [4, 9]: 14%
- log P (octanol/water) ([4]; octanol-1 / 0.02 M phosphate buffer pH 7.2): −0.86
- in vitro half-life in human plasma [5]: approximately 39 min
- Cmax of val-L-dC (unchanged prodrug) ([6]; Oral (10 mg/kg dival-L-dC)): Not detected
- L-dC as share of drug excreted in the urine ([6]; dival-L-dC 10 mg/kg IV): ~93%
- administered dose excreted in urine within 2 hours ([6]; dival-L-dC 10 mg/kg IV): 58±3%
- renal excretion of L-dU, share of total recovered dose ([6]; dival-L-dC 10 mg/kg IV): approximately 2.5%
- renal excretion of β-L-2′-deoxycytidine-5′-valine ester, share of total recovered dose ([6]; dival-L-dC 10 mg/kg IV): ~3.7%
- β-L-2′-deoxycytidine-5′-valine ester in plasma at 15 minutes ([6]; dival-L-dC 10 mg/kg IV): 3.23 µM
- β-L-2′-deoxycytidine-5′-valine ester in plasma by 2 hours ([6]; dival-L-dC 10 mg/kg IV): 0.08 µM
- dival-L-dC in plasma at 30 minutes ([6]; dival-L-dC 10 mg/kg IV, 1 of 3 animals): 0.36 µM
- dival-L-dC in urine, share of the recovered dose ([6]; dival-L-dC 10 mg/kg IV, one of three animals at 2 hours): approximately 0.15%
- L-dC as share of drug excreted in the urine ([6]; dival-L-dC 10 mg/kg oral): ~95%
- L-dC as share of plasma drug levels at Cmax ([6]; dival-L-dC 10 mg/kg oral): > 99%
- administered oral dose recovered in urine after 72 hours ([6]; dival-L-dC 10 mg/kg oral): 39±8%
- administered oral dose recovered in urine within 4 hours ([6]; dival-L-dC 10 mg/kg oral): ~31±8%
- renal excretion of L-dU, share of total recovered dose ([6]; dival-L-dC 10 mg/kg oral): approximately 2.5%
- renal excretion of β-L-2′-deoxycytidine-5′-valine ester, share of total recovered dose ([6]; dival-L-dC 10 mg/kg oral): ~0.2%
- L-dU concentration in plasma at 8 hours ([6]; dival-L-dC 10 mg/kg oral, one animal): 0.39 µM
- binding to human plasma proteins (human plasma proteins): 13.3%
- share of absorbed ester converted to L-dC [7]: more than 99%
- share of the oral dose absorbed [7]: approximately 73%
- Solubility (mol/L) [8]: more than 2.5 mol/L
